Results published in PubChem BioAssay (NCI).
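Exposure lasted 48 hours, with cells grown in 96-well plates and compounds tested at five concentrations. GI50: concentration for 50% inhibition of growth. At the TGI there is no net growth.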

Experiments:
Assay in all cases: NCI-60 cell line screen, 48 h
NCI-H522 lung = test system: NCI-H522 lung
SF-539 CNS = test system: SF-539 CNS
HL-60(TB) leukemia = test system: HL-60(TB) leukemia
OVCAR-8 ovarian = test system: OVCAR-8 ovarian
U251 CNS = test system: U251 CNS
UACC-257 melanoma = test system: UACC-257 melanoma
CCRF-CEM leukemia = test system: CCRF-CEM leukemia
HT29 colon = test system: HT29 colon
UO-31 renal = test system: UO-31 renal
PC-3 prostate = test system: PC-3 prostate

Compound: Cc1ccc(N2Cc3c(ccc4ccccc34)OP2(=O)Oc2ccc(Cl)c(C)c2)cc1 (stereo unspecified)
- TGI (NCI-H522 lung): > 100 µM
- TGI (SF-539 CNS): > 100 µM
- TGI (HL-60(TB) leukemia): > 100 µM
- TGI (OVCAR-8 ovarian): > 100 µM
- TGI (U251 CNS): > 100 µM
- TGI (UACC-257 melanoma): > 100 µM
- TGI (CCRF-CEM leukemia): > 100 µM
- TGI (HT29 colon): > 100 µM
- TGI (UO-31 renal): > 100 µM

Compound: CC(C)OP(=O)(OC(C)C)/C(I)=N/Nc1ccc([N+](=O)[O-])cc1
- TGI (NCI-H522 lung): > 100 µM
- TGI (SF-539 CNS): > 100 µM
- TGI (HL-60(TB) leukemia): > 100 µM
- TGI (OVCAR-8 ovarian): > 100 µM
- TGI (U251 CNS): > 100 µM
- TGI (UACC-257 melanoma): > 100 µM
- TGI (CCRF-CEM leukemia): > 100 µM
- TGI (HT29 colon): > 100 µM
- TGI (UO-31 renal): > 100 µM

Compound: CN(C)CCNC(=O)c1cccc2c(NCCN(C)C)c3ccccc3nc12
- TGI (NCI-H522 lung): 2.97 µM
- TGI (SF-539 CNS): 11.3 µM
- TGI (OVCAR-8 ovarian): 12.4 µM
- TGI (U251 CNS): 8.72 µM
- TGI (UACC-257 melanoma): 17.3 µM
- TGI (CCRF-CEM leukemia): > 100 µM
- TGI (HT29 colon): 5.34 µM
- TGI (PC-3 prostate): 7.34 µM
- TGI (UO-31 renal): 8.29 µM

Compound: CCOC(=O)C1=CNC(C(=O)OCC)C1c1cccn1-c1ccc(Cl)cc1[N+](=O)[O-] (stereo unspecified)
- TGI (NCI-H522 lung): 35.2 µM
- TGI (SF-539 CNS): 30.8 µM
- TGI (OVCAR-8 ovarian): 90.6 µM
- TGI (U251 CNS): 41.1 µM
- TGI (UACC-257 melanoma): 70 µM
- TGI (CCRF-CEM leukemia): 66.1 µM
- TGI (HT29 colon): 30.8 µM
- TGI (PC-3 prostate): 68.9 µM
- TGI (UO-31 renal): > 100 µM

Compound: O=C(/C=C/c1ccc(O)c(O)c1)OCCCc1ccccc1
- TGI (NCI-H522 lung): 5.59 µM
- TGI (SF-539 CNS): 5.81 µM
- TGI (HL-60(TB) leukemia): 4.84 µM
- TGI (U251 CNS): 23.4 µM
- TGI (UACC-257 melanoma): 63.4 µM
- TGI (HT29 colon): 48.4 µM
- TGI (PC-3 prostate): 24.4 µM
- TGI (UO-31 renal): 14.8 µM

Compound: Oc1ccc(-c2nc(-c3cccnc3)c(-c3ccc(Cl)cc3)[nH]2)cc1O
- TGI (NCI-H522 lung): 4.68 µM
- TGI (HL-60(TB) leukemia): > 100 µM
- TGI (OVCAR-8 ovarian): 30.2 µM
- TGI (U251 CNS): 26.4 µM
- TGI (UACC-257 melanoma): 28.3 µM
- TGI (CCRF-CEM leukemia): > 100 µM
- TGI (HT29 colon): 27.7 µM
- TGI (PC-3 prostate): 21.2 µM
- TGI (UO-31 renal): 26.8 µM

Compound: N[C@H](C(=O)O)[C@H]1ON=C(Cl)[C@@H]1O
- GI50 (NCI-H522 lung): > 25.8 µM
- TGI (NCI-H522 lung): 62.6 µM
- GI50 (SF-539 CNS): 8.83 µM
- TGI (SF-539 CNS): > 362 µM
- GI50 (HL-60(TB) leukemia): 13.1 µM
- TGI (HL-60(TB) leukemia): 222 µM
- GI50 (OVCAR-8 ovarian): 12.2 µM
- TGI (OVCAR-8 ovarian): > 550 µM
- GI50 (U251 CNS): 11.4 µM
- TGI (U251 CNS): > 550 µM
- GI50 (UACC-257 melanoma): > 51.1 µM
- TGI (UACC-257 melanoma): > 550 µM
- GI50 (CCRF-CEM leukemia): 5.15 µM
- TGI (CCRF-CEM leukemia): > 246 µM
- GI50 (HT29 colon): 1.24 µM
- TGI (HT29 colon): > 296 µM
- TGI (UO-31 renal): 441 µM

Compound: CC(C)/C(Cl)=N\OC(=O)Nc1ccccc1F
- TGI (SF-539 CNS): 32.1 µM
- TGI (HL-60(TB) leukemia): 4.13 µM
- TGI (OVCAR-8 ovarian): 31.4 µM
- TGI (U251 CNS): 31.1 µM
- TGI (UACC-257 melanoma): 33.2 µM
- TGI (CCRF-CEM leukemia): 3.44 µM
- TGI (HT29 colon): 54.3 µM
- TGI (PC-3 prostate): 30.9 µM
- TGI (UO-31 renal): 29.6 µM

Compound: COC(=O)[C@]1(c2cc3ccccc3n2S(=O)(=O)c2ccccc2)CC2CN(C(C)=O)C1CC2=O (stereo partly specified)
- TGI (NCI-H522 lung): 4.62 µM
- TGI (SF-539 CNS): 12.7 µM
- TGI (HL-60(TB) leukemia): 4.64 µM
- TGI (OVCAR-8 ovarian): 11.1 µM
- TGI (U251 CNS): 3.08 µM
- TGI (UACC-257 melanoma): 7.8 µM
- TGI (HT29 colon): 4.55 µM
- TGI (PC-3 prostate): 3.83 µM
- TGI (UO-31 renal): 3.45 µM

Compound: Cc1cccc2c(=O)c([Se]c3coc4c(C)cccc4c3=O)coc12
- TGI (NCI-H522 lung): > 100 µM
- TGI (SF-539 CNS): 29.9 µM
- TGI (HL-60(TB) leukemia): > 100 µM
- TGI (OVCAR-8 ovarian): 29.8 µM
- TGI (U251 CNS): 23.8 µM
- TGI (UACC-257 melanoma): 38.5 µM
- TGI (CCRF-CEM leukemia): > 100 µM
- TGI (HT29 colon): 61.7 µM
- TGI (UO-31 renal): 28.7 µM

Compound: BrCCCCCOc1ccc(-c2c3ccccc3c(-c3ccc(OCCCCCBr)cc3)c3ccccc23)cc1
- TGI (SF-539 CNS): > 100 µM
- TGI (HL-60(TB) leukemia): > 100 µM
- TGI (OVCAR-8 ovarian): > 100 µM
- TGI (U251 CNS): > 100 µM
- TGI (UACC-257 melanoma): > 100 µM
- TGI (CCRF-CEM leukemia): > 100 µM
- TGI (HT29 colon): > 100 µM
- TGI (PC-3 prostate): > 100 µM
- TGI (UO-31 renal): > 100 µM

Compound: CC(NC(=O)C(C)NC(=O)C(N)CCP(C)(=O)O)C(=O)O (stereo unspecified)
- TGI (NCI-H522 lung): > 100 µM
- TGI (SF-539 CNS): > 100 µM
- TGI (HL-60(TB) leukemia): > 100 µM
- TGI (OVCAR-8 ovarian): > 100 µM
- TGI (U251 CNS): > 100 µM
- TGI (UACC-257 melanoma): > 100 µM
- TGI (CCRF-CEM leukemia): > 100 µM
- TGI (HT29 colon): > 100 µM
- TGI (UO-31 renal): > 100 µM

Compound: CCCCC(=O)NS(=NC(=O)c1ccccc1)C(Cl)(Cl)Cl (stereo unspecified)
- TGI (SF-539 CNS): > 100 µM
- TGI (HL-60(TB) leukemia): > 100 µM
- TGI (OVCAR-8 ovarian): > 100 µM
- TGI (U251 CNS): > 100 µM
- TGI (UACC-257 melanoma): > 100 µM
- TGI (CCRF-CEM leukemia): > 100 µM
- TGI (HT29 colon): > 100 µM
- TGI (PC-3 prostate): > 100 µM
- TGI (UO-31 renal): > 100 µM

Compound: N/C(=N\S(=O)(=O)c1ccc(S(=O)(=O)c2ccccc2)s1)Nc1ccc(Cl)cc1
- TGI (NCI-H522 lung): 28.9 µM
- TGI (SF-539 CNS): 84.3 µM
- TGI (HL-60(TB) leukemia): 53.8 µM
- TGI (OVCAR-8 ovarian): 45.1 µM
- TGI (U251 CNS): 27.8 µM
- TGI (UACC-257 melanoma): 29.1 µM
- TGI (HT29 colon): 45.1 µM
- TGI (PC-3 prostate): 29.6 µM
- TGI (UO-31 renal): 40 µM

Compound: CC(=O)OCCCOCn1c(Cc2ccccc2)c(C)c(=O)[nH]c1=O
- TGI (NCI-H522 lung): > 100 µM
- TGI (SF-539 CNS): > 100 µM
- TGI (OVCAR-8 ovarian): > 100 µM
- TGI (U251 CNS): > 100 µM
- TGI (UACC-257 melanoma): > 100 µM
- TGI (CCRF-CEM leukemia): > 100 µM
- TGI (HT29 colon): > 100 µM
- TGI (PC-3 prostate): > 100 µM
- TGI (UO-31 renal): > 100 µM

Compound: COC(=O)C1Cc2c(OC)ccc(OC)c2CC(C(=O)OC)C1=O (stereo unspecified)
- TGI (NCI-H522 lung): > 100 µM
- TGI (SF-539 CNS): > 100 µM
- TGI (OVCAR-8 ovarian): > 100 µM
- TGI (U251 CNS): > 100 µM
- TGI (UACC-257 melanoma): > 100 µM
- TGI (CCRF-CEM leukemia): > 100 µM
- TGI (HT29 colon): > 100 µM
- TGI (PC-3 prostate): > 100 µM
- TGI (UO-31 renal): > 100 µM

Compound: CC(=O)[C@@]1(C)CC2(CCN(C)CC2)OC1C (stereo partly specified)
- TGI (NCI-H522 lung): > 100 µM
- TGI (SF-539 CNS): > 100 µM
- TGI (OVCAR-8 ovarian): > 100 µM
- TGI (U251 CNS): > 100 µM
- TGI (UACC-257 melanoma): > 100 µM
- TGI (HT29 colon): > 100 µM
- TGI (UO-31 renal): > 100 µM

Compound: Nc1nc(SCc2ccc([N+](=O)[O-])cc2)nc2c1ncn2C1OC(COP(=O)(O)O)C(O)C1O (stereo unspecified)
- TGI (NCI-H522 lung): > 100 µM
- TGI (SF-539 CNS): > 100 µM
- TGI (HL-60(TB) leukemia): > 100 µM
- TGI (OVCAR-8 ovarian): > 100 µM
- TGI (U251 CNS): > 100 µM
- TGI (UACC-257 melanoma): > 100 µM
- TGI (CCRF-CEM leukemia): > 100 µM
- TGI (HT29 colon): > 100 µM

Compound: COC(=O)C1C/C(=C/N(C)C)C(=S)N1 (stereo unspecified)
- TGI (NCI-H522 lung): > 100 µM
- TGI (OVCAR-8 ovarian): > 100 µM
- TGI (U251 CNS): > 100 µM
- TGI (UACC-257 melanoma): > 100 µM
- TGI (CCRF-CEM leukemia): > 100 µM
- TGI (HT29 colon): > 100 µM
- TGI (PC-3 prostate): > 100 µM
- TGI (UO-31 renal): > 100 µM

Compound: Cc1c(Cl)c2ccccc2n1S(=O)(=O)c1ccccc1
- TGI (NCI-H522 lung): 67.1 µM
- TGI (SF-539 CNS): > 100 µM
- TGI (HL-60(TB) leukemia): 78.8 µM
- TGI (OVCAR-8 ovarian): > 100 µM
- TGI (U251 CNS): > 100 µM
- TGI (UACC-257 melanoma): > 100 µM
- TGI (CCRF-CEM leukemia): > 100 µM
- TGI (HT29 colon): > 100 µM
- TGI (UO-31 renal): 85.6 µM

Compound: Cc1nc(C)c(C(=O)NNC(N)=S)cc1C(=O)NNC(N)=S
- TGI (NCI-H522 lung): > 100 µM
- TGI (SF-539 CNS): > 100 µM
- TGI (HL-60(TB) leukemia): > 100 µM
- TGI (OVCAR-8 ovarian): > 100 µM
- TGI (U251 CNS): > 100 µM
- TGI (UACC-257 melanoma): > 100 µM
- TGI (HT29 colon): > 100 µM
- TGI (PC-3 prostate): > 100 µM
- TGI (UO-31 renal): > 100 µM

Compound: Nc1ncnc2c1nnn2C1C=CC(COS(N)(=O)=O)C1 (stereo unspecified)
- TGI (SF-539 CNS): 7.39 µM
- TGI (HL-60(TB) leukemia): 17.1 µM
- TGI (OVCAR-8 ovarian): 55 µM
- TGI (U251 CNS): 57.7 µM
- TGI (UACC-257 melanoma): 62.6 µM
- TGI (CCRF-CEM leukemia): > 100 µM
- TGI (HT29 colon): 98.5 µM
- TGI (PC-3 prostate): 26.9 µM
- TGI (UO-31 renal): 49 µM
